Results taken from patent publication US20170231966A1, “INHIBITION OF IL-2 PRODUCTION” (AYUMI PHARMACEUTICAL CORPORATION, priority 2013, published 2017).
Structures can show the parent of a compound that is named as a salt.

Test system: transcriptional activation of IL-2
Test: IL-2 transcriptional activation Luciferase Assay (IL-2 Gene Promoter Reporter Vector) in A23187-stimulated Jurkat cells
Assay type: cell-based, human
Conditions: for Action on A23187-accelerated transcriptional activation of IL-2 (in words) / Inhibition ratio (transcriptional activation of IL-2), Table 2 / Inhibiting ratio of IL-2 transcriptional activation: A23187-stimulated Jurkat cells; for Luc activity value, No stimulation / Luc activity value, Stimulated by A23187: Jurkat cells, 24 hours, average ± standard deviation, n=3; for Luc activity value, No stimulation: no A23187, DMSO = 1; for Luc activity value, Stimulated by A23187: A23187 0.3 μM, unstimulated DMSO = 1

## CCOCCN(CCCOc1ccc(OC)cc1C1Sc2cc(Cl)ccc2N1C(C)=O)C(C)C.Cl (racemic) [Compound 3, (±)-3-acetyl-6-chloro-2-[2-(3-(N-(2-ethoxyethyl)-N-isopropylamino)propoxy)-5-methoxyphenyl]benzothiazoline hydrochloride]
  Action on A23187-accelerated transcriptional activation of IL-2 (in words): inhibited transcriptional activation of IL-2
Compound 10 μM
  Inhibition ratio (transcriptional activation of IL-2), Table 2: 77%

## CCOCCN(CCCOc1ccc(OC)cc1C1Sc2cc(Cl)ccc2N1C(C)=O)C(C)C (single isomer, unassigned; (+)) [Compound 2, (+)-3-acetyl-6-chloro-2-[2-(3-(N-(2-ethoxyethyl)-N-isopropylamino)propoxy)-5-methoxyphenyl]benzothiazoline (+O,O′-diacetyl-L-tartaric acid salt]
  Action on A23187-accelerated transcriptional activation of IL-2 (in words): statistically significant inhibiting action
Compound 0.3 μM
  Luc activity value, No stimulation: 0.8842 ± 0.1143
  Luc activity value, Stimulated by A23187: 81.9510 ± 30.4537
  Inhibiting ratio of IL-2 transcriptional activation: 12%
Compound 1 μM
  Luc activity value, No stimulation: 0.9410 ± 0.0598
  Luc activity value, Stimulated by A23187: 65.0761 ± 13.2402
  Inhibiting ratio of IL-2 transcriptional activation: 30%
Compound 10 μM
  Luc activity value, No stimulation: 0.9469 ± 0.0928
  Luc activity value, Stimulated by A23187: 27.5064 ± 29.2861
  Inhibiting ratio of IL-2 transcriptional activation: 70%

## COc1ccc(OCCCN(CCO)C(C)C)c(C2Sc3cc(Cl)ccc3N2C(C)=O)c1.Cl (single isomer, unassigned; (+)) [Compound 4, (+)-3-acetyl-6-chloro-2-[2-(3-(N-(2-hydroxyethyl)-N-isopropylamino)propoxy)-5-methoxyphenyl]benzothiazoline hydrochloride]
  Action on A23187-accelerated transcriptional activation of IL-2 (in words): inhibited transcriptional activation of IL-2
Compound 10 μM
  Inhibition ratio (transcriptional activation of IL-2), Table 2: 38%

## CN(C(=O)C(c1ccccc1)c1ccccc1)[C@H](CN1CC[C@H](O)C1)c1ccccc1 [Asimadoline, asimadoline, reference compound]
Compound 10 μM
  Inhibition ratio (transcriptional activation of IL-2), Table 2: 19%

## COCCN(CCCOc1ccc(OC)cc1C1Sc2cc(Cl)ccc2N1C(C)=O)C(C)C [Compound 5, (+)-3-acetyl-6-chloro-2-[2-(3-(N-isopropyl-N-(2-methoxyethyl)amino)propoxy)-5-methoxyphenyl]benzothiazoline (−)-O,O′-diacetyl-L-tartaric acid salt]
  Action on A23187-accelerated transcriptional activation of IL-2 (in words): inhibited transcriptional activation of IL-2
Compound 10 μM
  Inhibition ratio (transcriptional activation of IL-2), Table 2: 72%
